Article PMC12754783 (2025)
Each block holds one compound with its values, some of them ahead of it.

Assays:
[1] = tested on: 5YEY (DNA, G4) GGGTTAGGGTTAGGGTTTGGG; assay: native ESI-MS screening (single concentration); conditions: 0.5 mM K+; 100 mM TMAA pH 6.8, 10 µM DNA, 20 µM ligand; stepwise KD1 (KD2 40)
[2] = tested on: 1XAV (DNA, G4) TGAGGGTGGGTAGGGTGGGTAA; assay: native ESI-MS screening (single concentration); conditions: 0.5 mM K+, 100 mM TMAA pH 6.8, 10 µM DNA, 20 µM ligand
[3] = tested on: 222T_mA (DNA, G4) TGGGTTGGGAAGGGTTGGGT; assay: native ESI-MS screening (single concentration); conditions: 0.5 mM K+, 100 mM TMAA pH 6.8, 10 µM DNA, 20 µM ligand
[4] = tested on: T24 (DNA, single strand) TTTTTTTTTTTTTTTTTTTTTTTT; assay: native ESI-MS titration; conditions: 0.5 mM K+; 100 mM TMAA pH 6.8, 10 µM DNA, up to 40 µM ligand
[5] = tested on: 222T (DNA, G4) TGGGTTGGGTTGGGTTGGGT; assay: native ESI-MS screening (single concentration); conditions: 0.5 mM K+, 100 mM TMAA pH 6.8, 10 µM DNA, 20 µM ligand
[6] = tested on: 5YEY (DNA, G4) GGGTTAGGGTTAGGGTTTGGG; assay: native ESI-MS titration; conditions: 0.5 mM K+, 100 mM TMAA pH 6.8, 10 µM DNA
[7] = tested on: 5YEY (DNA, G4) GGGTTAGGGTTAGGGTTTGGG; assay: UV melting 295 nm; conditions: 0.5 mM K+; 100 mM TMAA pH 6.8; 10 µM DNA, 20 µM QQPQ
[8] = tested on: 222T (DNA, G4) TGGGTTGGGTTGGGTTGGGT; assay: UV melting 295 nm; conditions: 0.5 mM K+; 100 mM TMAA pH 6.8; 10 µM DNA, 20 µM QQPQ; two transitions
TG4T (DNA, G4) TGGGGT = assay: native ESI-MS screening (single concentration); conditions: K+ 0.5 mM (KCl) with 100 mM TMAA, or NH4+ 150 mM; source does not say which; pH 6.8, 10 µM DNA, 20 µM ligand; stepwise KD1
[9] = tested on: 22GT_18T (DNA, G4) GGGTTAGGGTTAGGGTTTGGGT; assay: native ESI-MS screening (single concentration); conditions: 0.5 mM K+; 100 mM TMAA pH 6.8, 10 µM DNA, 20 µM ligand; stepwise KD1
[10] = tested on: 26TTA (DNA, G4) TTAGGGTTAGGGTTAGGGTTAGGGTT; assay: native ESI-MS screening (single concentration); conditions: 0.5 mM K+; 100 mM TMAA pH 6.8, 10 µM DNA, 20 µM ligand; stepwise KD1
[11] = tested on: T30177TT (DNA, G4) TTGTGGTGGGTGGGTGGGT; assay: UV melting 295 nm; conditions: 0.5 mM K+; 100 mM TMAA pH 6.8; 10 µM DNA, 20 µM QQPQ; two transitions
[12] = tested on: 21G (DNA, G4) GGGTTAGGGTTAGGGTTAGGG; assay: native ESI-MS titration; conditions: 0.5 mM K+; 100 mM TMAA pH 6.8, 10 µM DNA; KD1 differs 20-fold from 5YEY
[13] = tested on: 1XAV (DNA, G4) TGAGGGTGGGTAGGGTGGGTAA; assay: native ESI-MS titration; conditions: 0.5 mM K+; 100 mM TMAA pH 6.8, 10 µM DNA; stepwise KD1
[14] = stepwise KD1, exact value in Table S3

KD1 [1]: 75 µM | KD1 ([2]; stepwise KD1 (KD2 7.4)): 5.2 µM | KD1 ([3]; stepwise KD1 (KD2 3.4)): 8.9 µM | KD [4]: > 100 µM | KD1 ([5]; stepwise KD1 (KD2 5.4)): 2.3 µM
Structure (SMILES): CC(=O)Nc1cccc2c(OCCCN)cc(C(=O)NCc3cccc(C(=O)NCc4cccc(C(=O)Nc5cccc6c(OCCCN)cc(C(=O)O)nc56)n4)n3)nc12

KD1 ([2]; stepwise KD1 (KD2 27)): 15 µM | KD1 ([3]; stepwise KD1 (KD2 14)): 25 µM | KD [4]: > 100 µM | KD1 ([5]; stepwise KD1 (KD2 22)): 4.8 µM
Structure (SMILES): CC(=O)Nc1cccc2c(OCCCN)cc(C(=O)NCc3cccc(C(=O)Nc4cccc5c(OCCCN)cc(C(=O)O)nc45)n3)nc12

KD1 [6, 14]: < 10 µM
Structure (SMILES): CC(=O)Nc1cccc2c(OCCCN)cc(C(=O)Nc3cccc4c(OCCCN)cc(C(=O)Nc5cccc6c(OCCCN)cc(C(=O)Nc7cccc8c(OCCCN)cc(C(=O)Nc9cccc%10c(OCCCN)cc(C(=O)O)nc9%10)nc78)nc56)nc34)nc12

ΔTm [7]: +8.2 °C | ΔTm [8]: ~ +26 °C | KD1 ([6]; stepwise KD1 (KD2 200 ± 70), screening gave 1.5): 0.54 ± 0.1 µM | KD1 ([2]; stepwise KD1 (KD2 1.5)): 0.5 µM | KD1 (TG4T (DNA, G4) TGGGGT): ~ 5 µM | KD1 [9]: ~ 5 µM | KD1 ([3]; stepwise KD1 (KD2 1.0)): 2.2 µM | KD [4]: > 100 µM | KD1 [10]: ~ 5 µM | KD1 ([5]; stepwise KD1 (KD2 2.1)): 0.5 µM | ΔTm [11]: 17 °C
Structure (SMILES): CC(=O)Nc1cccc2c(OCCCN)cc(C(=O)Nc3cccc4c(OCCCN)cc(C(=O)NCc5cccc(C(=O)Nc6cccc7c(OCCCN)cc(C(=O)O)nc67)n5)nc34)nc12

KD1 [12]: 330 ± 23 µM | KD1 [6, 14]: < 10 µM | KD1 ([3]; stepwise KD1 (KD2 4.5)): 12 µM | KD1 ([5]; stepwise KD1 (KD2 2.0)): 1.1 µM | KD1 [13]: 0.075 ± 0.059 µM
Structure (SMILES): CC(=O)Nc1cccc2c(OCCCN)cc(C(=O)Nc3cccc4c(OCCCN)cc(C(=O)Nc5cccc6c(OCCCN)cc(C(=O)Nc7cccc8c(OCCCN)cc(C(=O)O)nc78)nc56)nc34)nc12

KD1 [13]: 28 ± 6.7 µM
Structure (SMILES): CC(=O)Nc1cccc2c(OCCCN)cc(C(=O)Nc3cccc4c(OCCCN)cc(C(=O)Nc5cccc6c(OCCCN)cc(C(=O)Nc7cccc8c(OCCCN)cc(C(=O)Nc9cccc%10c(OCCCN)cc(C(=O)Nc%11cccc%12c(OCCCN)cc(C(=O)Nc%13cccc%14c(OCCCN)cc(C(=O)Nc%15cccc%16c(OCCCN)cc(C(=O)O)nc%15%16)nc%13%14)nc%11%12)nc9%10)nc78)nc56)nc34)nc12
